Tests used:
Hepatotoxicity [1] = test system: Hepatotoxicity;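 for HepSE Combined Scores: combined hepatic side effect score as listed in the training data of the Drug Induced Liver Injury Prediction System (DILIps)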;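 for HepSE cholecystitis: Cholecystitis-related hepatic side effect score drawn from the DILIps (drug-induced liver injury prediction) training data set; call rule not given here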;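 for HepSE cirrhosis: cirrhosis hepatic side effect score taken from the DILIps (drug-induced liver injury prediction) training set; call rule not given here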; for HepSE hepatic failure: call rule not given here;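 for HepSE hepatic necrosis: score of hepatic side effects for hepatic necrosis, drawn from the training data of DILIps, a prediction system for drug-induced liver injury; call rule not given here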;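 for HepSE hepatomegaly: hepatic side effect score for hepatomegaly, taken from the training set of the DILIps drug-induced liver injury prediction system; call rule not given here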;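 for HepSE liver fatty: hepatic side effect score for fatty liver, taken from the DILIps training set for predicting drug-induced liver injury; call rule not given here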
Hepatotoxicity [2] = test system: Hepatotoxicity; remark: listed apart in the source;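 for HepSE Combined Scores: combined hepatic side effect score as listed in the training data of the Drug Induced Liver Injury Prediction System (DILIps)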;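 for HepSE cholecystitis: Cholecystitis-related hepatic side effect score drawn from the DILIps (drug-induced liver injury prediction) training data set; call rule not given here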;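 for HepSE cirrhosis: cirrhosis hepatic side effect score taken from the DILIps (drug-induced liver injury prediction) training set; call rule not given here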; for HepSE hepatic failure: call rule not given here;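 for HepSE hepatic necrosis: score of hepatic side effects for hepatic necrosis, drawn from the training data of DILIps, a prediction system for drug-induced liver injury; call rule not given here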;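 for HepSE hepatomegaly: hepatic side effect score for hepatomegaly, taken from the training set of the DILIps drug-induced liver injury prediction system; call rule not given here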;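 for HepSE liver fatty: hepatic side effect score for fatty liver, taken from the DILIps training set for predicting drug-induced liver injury; call rule not given here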
Hepatotoxicity [3] = test system: Hepatotoxicity; remark: listed apart in the source;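 for HepSE Combined Scores: combined hepatic side effect score as listed in the training data of the Drug Induced Liver Injury Prediction System (DILIps)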;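 for HepSE cholecystitis: Cholecystitis-related hepatic side effect score drawn from the DILIps (drug-induced liver injury prediction) training data set; call rule not given here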;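 for HepSE cirrhosis: cirrhosis hepatic side effect score taken from the DILIps (drug-induced liver injury prediction) training set; call rule not given here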; for HepSE hepatic failure: call rule not given here;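 for HepSE hepatomegaly: hepatic side effect score for hepatomegaly, taken from the training set of the DILIps drug-induced liver injury prediction system; call rule not given here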;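 for HepSE liver fatty: hepatic side effect score for fatty liver, taken from the DILIps training set for predicting drug-induced liver injury; call rule not given here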
Hepatotoxicity [4] = test system: Hepatotoxicity; remark: listed apart in the source;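 for HepSE Combined Scores: combined hepatic side effect score as listed in the training data of the Drug Induced Liver Injury Prediction System (DILIps)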;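 for HepSE cholecystitis: Cholecystitis-related hepatic side effect score drawn from the DILIps (drug-induced liver injury prediction) training data set; call rule not given here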;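 for HepSE cirrhosis: cirrhosis hepatic side effect score taken from the DILIps (drug-induced liver injury prediction) training set; call rule not given here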; for HepSE hepatic failure: call rule not given here;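 for HepSE hepatomegaly: hepatic side effect score for hepatomegaly, taken from the training set of the DILIps drug-induced liver injury prediction system; call rule not given here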;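 for HepSE liver fatty: hepatic side effect score for fatty liver, taken from the DILIps training set for predicting drug-induced liver injury; call rule not given here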
Hepatotoxicity [5] = test system: Hepatotoxicity; remark: listed apart in the source; for HepSE hepatic failure: call rule not given here
Hepatotoxicity [6] = test system: Hepatotoxicity; remark: listed apart in the source; for HepSE hepatic failure: call rule not given here
Hepatotoxicity [7] = test system: Hepatotoxicity; remark: listed apart in the source
Hepatotoxicity [8] = test system: Hepatotoxicity; remark: listed apart in the source
Hepatotoxicity [9] = test system: Hepatotoxicity; remark: listed apart in the source
Hepatotoxicity [10] = test system: Hepatotoxicity; remark: listed apart in the source
Hepatotoxicity [11] = test system: Hepatotoxicity; remark: listed apart in the source
Hepatotoxicity [12] = test system: Hepatotoxicity; remark: listed apart in the source
Hepatotoxicity [13] = test system: Hepatotoxicity; remark: listed apart in the source
Hepatotoxicity [14] = test system: Hepatotoxicity; remark: listed apart in the source

| Compound | HepSE_liver fatty (Hepatotoxicity [1]) | HepSE_Combined Scores (Hepatotoxicity [2]) | HepSE_hepatic failure (Hepatotoxicity [3]) | HepSE_cholecystitis (Hepatotoxicity [4]) | HepSE_cirrhosis (Hepatotoxicity [5]) | HepSE_hepatomegaly (Hepatotoxicity [6]) | HepSE_hepatic necrosis (Hepatotoxicity [7]) | HepSE_cholelithiasis (Hepatotoxicity [8]) | HepSE_jaundice (Hepatotoxicity [9]) | HepSE_liver function tests abnormal (Hepatotoxicity [10]) | HepSE_liver disease (Hepatotoxicity [11]) | HepSE_bilirubinemia (Hepatotoxicity [12]) | HepSE_hepatitis (Hepatotoxicity [13]) | HepSE_elevated liver function tests (Hepatotoxicity [14]) | also measured |
| --- | --- | --- | --- | --- | --- | --- | --- | --- | --- | --- | --- | --- | --- | --- | --- |
| CCN(CC)CCOC(=O)c1ccc(N)cc1 [PROCAINE] | 0 | 0 | 0 | 0 | 0 | 0 | 0 | 0 | 0 | 0 | 0 | 0 | 0 | 0 |  |
| CNNCc1ccc(C(=O)NC(C)C)cc1 [PROCARBAZINE] | 0 | 1 | 0 | 0 | 0 | 0 | 0 | 0 | 1 | 0 | 0 | 0 | 0 | 0 |  |
| CN1CCN(CCCN2c3ccccc3Sc3ccc(Cl)cc32)CC1 [PROCHLORPERAZINE] | 0 | 1 | 0 | 0 | 0 | 0 | 0 | 0 | 1 | 0 | 0 | 0 | 0 | 0 |  |
| OC(CCN1CCCC1)(c1ccccc1)C1CCCCC1 (configuration not stated) [PROCYCLIDINE] | 0 | 0 | 0 | 0 | 0 | 0 | 0 | 0 | 0 | 0 | 0 | 0 | 0 | 0 |  |
| CC(=O)[C@H]1CC[C@H]2[C@@H]3CCC4=CC(=O)CC[C@]4(C)[C@H]3CC[C@]12C [PROGESTERONE] | 0 | 4 | 1 | 0 | 0 | 0 | 1 | 0 | 1 | 0 | 0 | 0 | 1 | 0 |  |
| CC(CN1c2ccccc2Sc2ccccc21)N(C)C (configuration not stated) [PROMETHAZINE] | 0 | 1 | 0 | 0 | 0 | 0 | 0 | 0 | 1 | 0 | 0 | 0 | 0 | 0 |  |
| CC(C)[N+](C)(CCOC(=O)C1c2ccccc2Oc2ccccc21)C(C)C [PROPANTHELINE] | 0 | 0 | 0 | 0 | 0 | 0 | 0 | 0 | 0 | 0 | 0 | 0 | 0 | 0 |  |
| CCCOc1ccc(C(=O)OCCN(CC)CC)cc1N [PROPARACAINE] | 0 | 0 | 0 | 0 | 0 | 0 | 0 | 0 | 0 | 0 | 0 | 0 | 0 | 0 |  |
| CC(C)c1cccc(C(C)C)c1O [PROPOFOL] |  |  |  |  |  |  |  |  |  |  |  |  |  |  | HepSE_liver fatty (Hepatotoxicity [1]; Liver): 0; HepSE_Combined Scores (Hepatotoxicity [2]; Liver): 1; HepSE_hepatic failure (Hepatotoxicity [3]; Liver): 0; HepSE_cholecystitis (Hepatotoxicity [4]; Liver): 0; HepSE_cirrhosis (Hepatotoxicity [5]; Liver): 0; HepSE_hepatomegaly (Hepatotoxicity [6]; Liver): 1; HepSE_hepatic necrosis (Hepatotoxicity [7]; Liver): 0; HepSE_cholelithiasis (Hepatotoxicity [8]; Liver): 0; HepSE_jaundice (Hepatotoxicity [9]; Liver): 0; HepSE_liver function tests abnormal (Hepatotoxicity [10]; Liver): 0; HepSE_liver disease (Hepatotoxicity [11]; Liver): 0; HepSE_bilirubinemia (Hepatotoxicity [12]; Liver): 0; HepSE_hepatitis (Hepatotoxicity [13]; Liver): 0; HepSE_elevated liver function tests (Hepatotoxicity [14]; Liver): 0 |
| CCC(=O)O[C@](Cc1ccccc1)(c1ccccc1)[C@H](C)CN(C)C [PROPOXYPHENE] | 0 | 2 | 0 | 0 | 0 | 0 | 0 | 0 | 1 | 1 | 0 | 0 | 0 | 0 |  |
| CC(C)NCC(O)COc1cccc2ccccc12 (configuration not stated) [PROPRANOLOL] | 0 | 0 | 0 | 0 | 0 | 0 | 0 | 0 | 0 | 0 | 0 | 0 | 0 | 0 |  |
| CCCc1cc(=O)[nH]c(=S)[nH]1 [PROPYLTHIOURACIL] |  |  |  |  |  |  |  |  |  |  |  |  |  |  | HepSE_liver fatty (Hepatotoxicity [1]; Liver): 0; HepSE_Combined Scores (Hepatotoxicity [2]; Liver): 2; HepSE_hepatic failure (Hepatotoxicity [3]; Liver): 0; HepSE_cholecystitis (Hepatotoxicity [4]; Liver): 0; HepSE_cirrhosis (Hepatotoxicity [5]; Liver): 0; HepSE_hepatomegaly (Hepatotoxicity [6]; Liver): 0; HepSE_hepatic necrosis (Hepatotoxicity [7]; Liver): 0; HepSE_cholelithiasis (Hepatotoxicity [8]; Liver): 0; HepSE_jaundice (Hepatotoxicity [9]; Liver): 1; HepSE_liver function tests abnormal (Hepatotoxicity [10]; Liver): 0; HepSE_liver disease (Hepatotoxicity [11]; Liver): 0; HepSE_bilirubinemia (Hepatotoxicity [12]; Liver): 0; HepSE_hepatitis (Hepatotoxicity [13]; Liver): 1; HepSE_elevated liver function tests (Hepatotoxicity [14]; Liver): 0 |
| CNCCCC1c2ccccc2C=Cc2ccccc21 [PROTRIPTYLINE] |  |  |  |  |  |  |  |  |  |  |  |  |  |  | HepSE_liver fatty (Hepatotoxicity [1]; Liver): 0; HepSE_Combined Scores (Hepatotoxicity [2]; Liver): 1; HepSE_hepatic failure (Hepatotoxicity [3]; Liver): 0; HepSE_cholecystitis (Hepatotoxicity [4]; Liver): 0; HepSE_cirrhosis (Hepatotoxicity [5]; Liver): 0; HepSE_hepatomegaly (Hepatotoxicity [6]; Liver): 0; HepSE_hepatic necrosis (Hepatotoxicity [7]; Liver): 0; HepSE_cholelithiasis (Hepatotoxicity [8]; Liver): 0; HepSE_jaundice (Hepatotoxicity [9]; Liver): 1; HepSE_liver function tests abnormal (Hepatotoxicity [10]; Liver): 0; HepSE_liver disease (Hepatotoxicity [11]; Liver): 0; HepSE_bilirubinemia (Hepatotoxicity [12]; Liver): 0; HepSE_hepatitis (Hepatotoxicity [13]; Liver): 0; HepSE_elevated liver function tests (Hepatotoxicity [14]; Liver): 0 |
| NC(=O)c1cnccn1 [PYRAZINAMIDE] | 0 | 0 | 0 | 0 | 0 | 0 | 0 | 0 | 0 | 0 | 0 | 0 | 0 | 0 |  |
| CN(C)C(=O)Oc1ccc[n+](C)c1 [PYRIDOSTIGMINE] | 0 | 0 | 0 | 0 | 0 | 0 | 0 | 0 | 0 | 0 | 0 | 0 | 0 | 0 |  |
| CCc1nc(N)nc(N)c1-c1ccc(Cl)cc1 [PYRIMETHAMINE] | 0 | 0 | 0 | 0 | 0 | 0 | 0 | 0 | 0 | 0 | 0 | 0 | 0 | 0 |  |
| OCCOCCN1CCN(C2=Nc3ccccc3Sc3ccccc32)CC1 [QUETIAPINE] |  |  |  |  |  |  |  |  |  |  |  |  |  |  | HepSE_liver fatty (Hepatotoxicity [1]; Liver): 0; HepSE_Combined Scores (Hepatotoxicity [2]; Liver): 0; HepSE_hepatic failure (Hepatotoxicity [3]; Liver): 0; HepSE_cholecystitis (Hepatotoxicity [4]; Liver): 0; HepSE_cirrhosis (Hepatotoxicity [5]; Liver): 0; HepSE_hepatomegaly (Hepatotoxicity [6]; Liver): 0; HepSE_hepatic necrosis (Hepatotoxicity [7]; Liver): 0; HepSE_cholelithiasis (Hepatotoxicity [8]; Liver): 0; HepSE_jaundice (Hepatotoxicity [9]; Liver): 0; HepSE_liver function tests abnormal (Hepatotoxicity [10]; Liver): 0; HepSE_liver disease (Hepatotoxicity [11]; Liver): 0; HepSE_bilirubinemia (Hepatotoxicity [12]; Liver): 0; HepSE_hepatitis (Hepatotoxicity [13]; Liver): 0; HepSE_elevated liver function tests (Hepatotoxicity [14]; Liver): 0 |
| C=C[C@H]1C[N@@]2CC[C@H]1C[C@@H]2[C@@H](O)c1ccnc2ccc(OC)cc12 [QUINIDINE] | 0 | 3 | 0 | 0 | 0 | 0 | 0 | 0 | 1 | 1 | 0 | 0 | 1 | 0 |  |
